From patent publication US20250170114A1, “METHODS OF TREATMENT USING T-TYPE CALCIUM CHANNEL MODULATORS” (Praxis Precision Medicines, Inc., priority 2022, published 2025)

What was measured:
[1] = system: participants with ET; assay: Phase 2 trial Part B: Beck Anxiety Inventory (BAI); format: in vivo, human
Procedure: The Beck Anxiety Index (BAI) is a brief measure of anxiety with a specific attention on somatic symptoms of anxiety that was developed as a measure aimed at discriminating between anxiety and depression (Beck et al 1988). The BAI contains 21 questions about the common symptoms of anxiety that the subject could have experienced during the past week (including the day the BAI is administered). The common symptoms of anxiety include numbness and tingling, sweating not due to heat, and fear of the worst happening. It is designed for individuals who are of 17 years of age or older and takes 5 to 10 minutes to complete. Each answer is scored on a scale value of 0 (not at all) to 3 (severely). Higher total scores indicate more severe anxiety symptoms. The standardized cutoffs are the following: 0-7: minimal, 8-15: mild, 16-25: moderate, 26-63: severe.
(§1) In both phases, key safety measures included clinical laboratory evaluations, 12-lead ECG, C-SSRS, and vital signs. Key efficacy assessments included the TETRAS Performance subscale, TETRAS Upper Limb using accelerometry, CGI, PGI-C, TETRAS ADL Subscale, QUEST, BDI-II, and BAI. Blood samples were obtained for the determination of study drug and metabolite plasma concentrations.

[2] = Phase 2 trial: study drug plasma concentrations; format: in vivo, human
Excerpt: as §1, with “Key safety measures included clinical laboratory evaluations, 12-lead ECG, C-SSRS, and vital signs. Key efficacy assessments included the TETRAS Performance subscale, TETRAS Upper Limb using accelerometry, CGI, and PGI-C. Blood samples were obtained for the determination of study drug plasma concentrations using a validated bioanalytical method and may also be used for method development and/or metabolite characterization. In” for “In”

[3] = system: Harmaline induced tremor activity in male Sprague Dawley (SD) rats; assay: Harmaline-induced tremor activity measured with a piezoelectric plate; format: in vivo, rat; details: harmaline 30 mg/kg i.p., 1 mg/kg p.o. alone
Procedure: This study sought to evaluate the effects of the HCl salt of the compound of Formula (I) (the “study drug”) administered alone (1 mg/kg, p.o.) or in combination with propranolol (1 and 3 mg/kg, i.p. at 20 min prior) in Harmaline (10 or 30 mg/kg, i.p.) induced tremor activity measured with a piezoelectric plate in male Sprague Dawley (SD) rats.
Rats were fed ad lib and kept at a 12:12 light-dark cycle throughout the study. There were N=15 in each group. Harmaline and propranolol were each formulated with saline using a volume of 5 ml/kg bodyweight. Vehicle for the study drug (1 mg/kg) was 0.5% methyl cellulose/0.1% Tween-80 in water.
1) Rats were allowed to acclimate in standard laboratory animal facility conditions for at least 5-7 days prior to use. 2) Rat was put in a Plexiglas chamber with a piezoelectric plate attached at the bottom to transduce tremor behavior into electronic signal. […] 3) One day prior to the first testing day, a naive rat was put in the testing chamber to confirm that the spontaneous activity baseline was within the range of 3000-10000 uv, as this sensitivity level generally allows all the tremor signal to be detected with the system. […] 11) Post-harmaline effect was measured for 20 min (10-30 min). […]

[4] = system: harmaline-induced hypolocomotion in male SD rats; assay: Co-dosing with propranolol in rat harmaline-induced hypolocomotion (open field, 30 min); format: in vivo; details: harmaline 30 mg/kg, 3 mg/kg study drug alone (without propranolol), identical study
Procedure: Two harmaline model studies using sLMA as one ADL-like end point were carried out. In each of two sLMA studies, male SD rats were grouped into five groups according to the following table. In the first study, Groups 3, 4, and 5 received 3 mg/kg of propranolol and the compound of Formula (I) (the study drug) at the doses of 1 mg/kg or 3 mg/kg. In the second study, Groups 3, 4, and 5, received 10 mg/kg of propranolol and the study drug at the doses of 1 mg/kg or 3 mg/kg.
Rats were then subjected to an open field test for 30 minutes. Total distance travelled was measured.

[5] = system: participants with ET; assay: Phase 2 trial Part B: Quality of Life in Essential Tremor Questionnaire (QUEST); format: in vivo, human; details: pre-dose baseline to Day 56, participants receiving study drug
Excerpt: as §1

[6] = Part B OLT (FAS), Day 7, n = 13
[7] = Part B OLT (FAS), Day 21, n = 12
[8] = Part B OLT (FAS), Day 42, n = 11
[9] = Part B RWD (RWAS), Day 56, Study drug, n = 6
[10] = Part B RWD (RWAS), Day 70, Study drug, n = 5

CC(C)(C)NC(=O)CN1CCC(CNC(=O)c2cc(F)cc(Cl)c2)CC1.Cl [Study drug]
BAI Score Mild (8-15) [1, 6]: 3 n (%) | BAI Score Minimal (0-7) [1, 6]: 7 n (%) | BAI Score Moderate (16-25) [1, 6]: 3 n (%) | BAI Score Severe (26-63) [1, 6]: 0 n (%) | BAI Score Mild (8-15) [1, 7]: 1 n (%) | BAI Score Minimal (0-7) [1, 7]: 9 n (%) | BAI Score Moderate (16-25) [1, 7]: 2 n (%) | BAI Score Severe (26-63) [1, 7]: 0 n (%) | BAI Score Mild (8-15) [1, 8]: 1 n (%) | BAI Score Minimal (0-7) [1, 8]: 9 n (%) | BAI Score Moderate (16-25) [1, 8]: 1 n (%) | BAI Score Severe (26-63) [1, 8]: 0 n (%) | BAI Score Mild (8-15) [1, 9]: 2 n (%) | BAI Score Minimal (0-7) [1, 9]: 4 n (%) | BAI Score Moderate (16-25) [1, 9]: 0 n (%) | BAI Score Severe (26-63) [1, 9]: 0 n (%) | BAI Score Mild (8-15) [1, 10]: 0 n (%) | BAI Score Minimal (0-7) [1, 10]: 4 n (%) | BAI Score Moderate (16-25) [1, 10]: 0 n (%) | BAI Score Severe (26-63) [1, 10]: 1 (20.0) n (%) | change in BAI scores ([1]; Part B open-label titration phase): shift in BAI scores from mild to minimal anxiety | study drug plasma concentrations ([2]; 1-hour post-dose, all participants): Measurable | study drug plasma concentrations ([2]; after 56 days of daily dosing and a 14-day washout period): undetectable | concentration at 42 day ([2]; human, plasma, oral, 120 mg, Part B, Day 42, steady-state): 379 ng/mL | concentration at 56 day ([2]; human, plasma, oral, Part B, Day 56): 344 ng/mL | harmaline-induced tremor (tremor power in the 8-13 Hz and 6-15 Hz bands) [3]: significantly reduces | harmaline-induced hypolocomotion (traveling distance in 0-30 minutes) vs harmaline and vehicle [4]: not significantly different | Quality of life measured by QUEST [5]: improved
